In PMC7270141 (International Journal for Parasitology: Drugs and Drug …, 2020):
Like-named read-outs stand apart in the source and are kept apart here.

Experiments:
[1] = system: P. falciparum multidrug-resistant W2 strain; test: SYBR Green I fluorescence assay, asexual parasite proliferation, W2 strain; format: cell-based; conditions: for Resistance Index (RI) = IC50 for W2/IC50 for NF54: W2 vs NF54
[2] = Single-point metabolic stability, mouse liver microsomes; format: in vitro ADME
Lactate dehydrogenase = conditions: human, Cytotoxicity EC50, HepG2, HepG2, LDH leakage, mean ± SEM, n ≥ 2
HepG2 cells = test: Lactate dehydrogenase; conditions: for Selectivity Index (SI) = EC50 for HepG2/IC50 for NF54: HepG2 vs NF54
[3] = Single-point metabolic stability, rat liver microsomes; format: in vitro ADME
[4] = Single-point metabolic stability, human liver microsomes; format: in vitro ADME
[5] = Solubility, miniaturised shake-flask method; format: physicochemical; conditions: PBS pH 6.5, 24 h at 25 °C, HPLC-DAD, unit from abstract
P. berghei = conditions: murine P. berghei, after a single oral dose; ref François et al., 1997c; cited from earlier work
[6] = Plasmodium falciparum, W2, 96 h, read-out: Inhibition of parasite proliferation IC50, W2, multidrug-resistant W2, 96 h drug pressure, mean ± SEM, n ≥ 2

SMILES | IC50 [1, 6] | Resistance Index (RI) = IC50 for W2/IC50 for NF54 [1] | remaining at 0.5 h, 1 μM ([2]; male, CD1, mouse, liver microsomes, % Remaining after 30 min, Mouse, 1 μM, mouse liver microsomes 0.4 mg/ml, 30 min, 37 °C) | EC50 (Lactate dehydrogenase) | Selectivity Index (SI) = EC50 for HepG2/IC50 for NF54 (HepG2 cells) | remaining at 0.5 h, 1 μM ([3]; male, IGS, rat, liver microsomes, % Remaining after 30 min, Rat, 1 μM, rat liver microsomes 0.4 mg/ml, 30 min, 37 °C) | remaining at 0.5 h, 1 μM ([4]; both, human, liver microsomes, % Remaining after 30 min, Human, 1 μM, human liver microsomes 0.4 mg/ml, 30 min, 37 °C) | Solubility PBS (pH 6.5) [5] | IC50 ([1]; read-out: Inhibition of parasite proliferation IC50, W2, multidrug-resistant W2, 96 h drug pressure, mean ± SEM, n ≥ 2) | % Remaining after 30 min, Mouse ([2]; 1 μM, mouse liver microsomes 0.4 mg/ml, 30 min, 37 °C) | Microsomal clearance, Mouse ([2]; in vitro intrinsic clearance, mouse liver microsomes) | EC50 (HepG2 cells; read-out: Cytotoxicity EC50, HepG2, HepG2, LDH leakage, mean ± SEM, n ≥ 2) | % Remaining after 30 min, Rat ([3]; 1 μM, rat liver microsomes 0.4 mg/ml, 30 min, 37 °C) | Microsomal clearance, Rat ([3]; in vitro intrinsic clearance, rat liver microsomes) | Parasitaemia decreased (P. berghei) | % Remaining after 30 min, Human ([4]; 1 μM, human liver microsomes 0.4 mg/ml, 30 min, 37 °C) | Microsomal clearance, Human ([4]; in vitro intrinsic clearance, human liver microsomes)
COc1cc(CO)c(-c2ccc3c(c2O)[C@@H](C)N[C@H](C)C3)c2cccc(O)c12 [Dioncopeltine A (5), dioncopeltine A] | 0.304 ± 0.06 µM | 38.1 | < 7% | 39 ± 13.1 µM | 4890.8 | > 99% | 98% | – | – | – | – | – | – | – | – | – | –
CCN(CC)CCCC(C)Nc1ccnc2cc(Cl)ccc12 (centres unmarked) [Chloroquine, reference compound] | 0.382 ± 0.09 µM | 29.5 | – | 37 ± 4.5 µM | 2855.4 | – | – | – | – | – | – | – | – | – | – | – | –
COc1cc(C)c(-c2ccc(O)c3c2C[C@@H](C)N[C@@H]3C)c2cccc(O)c12 (single isomer, unassigned) [Dioncophylline C (2a), dioncophylline C] | – | 2.9 | – | – | 552.6 | – | – | 170 μM | 0.112 ± 0.01 µM | 95% | <11.6 µL/min/mg | 21.2 ± 4 µM | 95% | <11.6 µL/min/mg | 99.6% | 94% | <11.6 µL/min/mg
